Activity calls are given as the source filed them.

A word on the IC50: it is the concentration that inhibits the measured activity by half. The AC50 is the concentration giving half of the maximal activity seen. Usually CC50 stands for the concentration that lowers cell viability or growth by half.

A short description of assay [1]: inhibition of ADAM10 peptide cleavage – biochemical, FRET peptide substrate, recombinant human ADAM10, selectivity assay for ADAM17 exosite inhibitor project, dose response (AID 743259).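 Note: ADAM10 enzyme cleaving a FRET peptide substrate.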
The target in assay [2] is Disintegrin and metalloproteinase domain-containing protein 17 (Homo sapiens, UniProt P78536). The assay can be described thus: exosite inhibitors of ADAM17, dose response, biochemical (AID 743260).
Chain of Disintegrin and metalloproteinase domain-containing protein 17 (P78536 whole entry, the tested form may be a part): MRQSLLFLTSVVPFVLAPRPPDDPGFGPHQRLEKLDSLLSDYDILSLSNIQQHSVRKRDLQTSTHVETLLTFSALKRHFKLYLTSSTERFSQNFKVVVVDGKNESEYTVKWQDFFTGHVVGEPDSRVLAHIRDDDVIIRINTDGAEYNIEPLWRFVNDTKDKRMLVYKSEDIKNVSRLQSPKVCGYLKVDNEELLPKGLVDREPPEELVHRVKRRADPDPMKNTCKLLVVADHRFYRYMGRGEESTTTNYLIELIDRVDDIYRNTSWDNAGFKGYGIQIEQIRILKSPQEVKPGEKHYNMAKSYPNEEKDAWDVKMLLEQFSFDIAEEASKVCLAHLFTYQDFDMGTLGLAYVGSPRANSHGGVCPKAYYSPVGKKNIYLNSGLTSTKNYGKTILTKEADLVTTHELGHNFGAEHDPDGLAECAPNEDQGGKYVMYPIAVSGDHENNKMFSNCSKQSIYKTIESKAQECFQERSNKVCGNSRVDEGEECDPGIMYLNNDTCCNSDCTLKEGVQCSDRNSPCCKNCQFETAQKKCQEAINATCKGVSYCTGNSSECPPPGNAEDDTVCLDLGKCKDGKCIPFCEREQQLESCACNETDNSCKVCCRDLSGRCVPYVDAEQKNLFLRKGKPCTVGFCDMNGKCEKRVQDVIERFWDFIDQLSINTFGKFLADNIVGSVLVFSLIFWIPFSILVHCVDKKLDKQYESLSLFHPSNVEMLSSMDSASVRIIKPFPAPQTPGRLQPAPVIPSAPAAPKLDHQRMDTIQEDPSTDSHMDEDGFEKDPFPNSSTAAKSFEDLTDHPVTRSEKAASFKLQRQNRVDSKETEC
Assay [3] relates to HeLa. Put plainly: viability loss in HeLa cells – cell-based, ATP luminescence, cherry-pick samples, cytotoxicity control, dose response (AID 687004). The format is functional. Particulars: Homo sapiens.
The target of assay [4] is Kallikrein-7 (Homo sapiens, UniProt P49862). The assay can be described thus: Fluorescence Intensity-based biochemical primary high throughput dose response assay to identify activators of kallikrein-7 (K7) zymogen.
Chain of Kallikrein-7 (P49862 whole entry): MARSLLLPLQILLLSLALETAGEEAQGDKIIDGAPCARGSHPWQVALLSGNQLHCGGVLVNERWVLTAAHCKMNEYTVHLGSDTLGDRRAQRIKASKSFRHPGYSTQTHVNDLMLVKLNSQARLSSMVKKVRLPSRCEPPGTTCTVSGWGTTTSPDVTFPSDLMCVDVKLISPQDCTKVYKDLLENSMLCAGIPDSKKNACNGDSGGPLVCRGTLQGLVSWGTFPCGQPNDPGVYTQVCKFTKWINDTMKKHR
Assay [5] addresses T1, Oxysterols receptor LXR-beta (Homo sapiens, UniProt P55055).
T1 sequence (P55055 whole entry): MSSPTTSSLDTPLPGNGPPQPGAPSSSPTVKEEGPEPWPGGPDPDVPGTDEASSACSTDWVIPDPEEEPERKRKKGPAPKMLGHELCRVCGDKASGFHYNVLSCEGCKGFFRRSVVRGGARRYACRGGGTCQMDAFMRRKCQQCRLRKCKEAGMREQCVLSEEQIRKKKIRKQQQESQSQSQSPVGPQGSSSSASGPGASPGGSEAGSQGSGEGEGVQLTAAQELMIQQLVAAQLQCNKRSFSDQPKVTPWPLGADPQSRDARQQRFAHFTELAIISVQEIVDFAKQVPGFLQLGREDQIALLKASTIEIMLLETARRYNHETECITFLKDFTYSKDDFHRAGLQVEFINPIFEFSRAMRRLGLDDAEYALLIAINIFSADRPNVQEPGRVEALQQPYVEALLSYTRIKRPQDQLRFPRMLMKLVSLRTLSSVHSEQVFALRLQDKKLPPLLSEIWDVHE
Put plainly: LXR agonists, Gal4 luciferase reporter, dose response, counter-screen for ssDAF-12 agonist project, cell-based, luminescence, HEK293, S. stercoralis campaign (AID 720737). Particulars: read-out: IC50 (the source's name). It counts as functional.

Assay [6] can be described thus: Luminescence-based cell-based high throughput dose response assay to identify activators of the DAF-12 from the parasite S. stercoralis (ssDAF-12). The format is functional.
The target in assay [7] is T2, 1-phosphatidylinositol 4,5-bisphosphate phosphodiesterase beta-3 (Homo sapiens, UniProt Q01970).
T2 sequence (Q01970 whole entry): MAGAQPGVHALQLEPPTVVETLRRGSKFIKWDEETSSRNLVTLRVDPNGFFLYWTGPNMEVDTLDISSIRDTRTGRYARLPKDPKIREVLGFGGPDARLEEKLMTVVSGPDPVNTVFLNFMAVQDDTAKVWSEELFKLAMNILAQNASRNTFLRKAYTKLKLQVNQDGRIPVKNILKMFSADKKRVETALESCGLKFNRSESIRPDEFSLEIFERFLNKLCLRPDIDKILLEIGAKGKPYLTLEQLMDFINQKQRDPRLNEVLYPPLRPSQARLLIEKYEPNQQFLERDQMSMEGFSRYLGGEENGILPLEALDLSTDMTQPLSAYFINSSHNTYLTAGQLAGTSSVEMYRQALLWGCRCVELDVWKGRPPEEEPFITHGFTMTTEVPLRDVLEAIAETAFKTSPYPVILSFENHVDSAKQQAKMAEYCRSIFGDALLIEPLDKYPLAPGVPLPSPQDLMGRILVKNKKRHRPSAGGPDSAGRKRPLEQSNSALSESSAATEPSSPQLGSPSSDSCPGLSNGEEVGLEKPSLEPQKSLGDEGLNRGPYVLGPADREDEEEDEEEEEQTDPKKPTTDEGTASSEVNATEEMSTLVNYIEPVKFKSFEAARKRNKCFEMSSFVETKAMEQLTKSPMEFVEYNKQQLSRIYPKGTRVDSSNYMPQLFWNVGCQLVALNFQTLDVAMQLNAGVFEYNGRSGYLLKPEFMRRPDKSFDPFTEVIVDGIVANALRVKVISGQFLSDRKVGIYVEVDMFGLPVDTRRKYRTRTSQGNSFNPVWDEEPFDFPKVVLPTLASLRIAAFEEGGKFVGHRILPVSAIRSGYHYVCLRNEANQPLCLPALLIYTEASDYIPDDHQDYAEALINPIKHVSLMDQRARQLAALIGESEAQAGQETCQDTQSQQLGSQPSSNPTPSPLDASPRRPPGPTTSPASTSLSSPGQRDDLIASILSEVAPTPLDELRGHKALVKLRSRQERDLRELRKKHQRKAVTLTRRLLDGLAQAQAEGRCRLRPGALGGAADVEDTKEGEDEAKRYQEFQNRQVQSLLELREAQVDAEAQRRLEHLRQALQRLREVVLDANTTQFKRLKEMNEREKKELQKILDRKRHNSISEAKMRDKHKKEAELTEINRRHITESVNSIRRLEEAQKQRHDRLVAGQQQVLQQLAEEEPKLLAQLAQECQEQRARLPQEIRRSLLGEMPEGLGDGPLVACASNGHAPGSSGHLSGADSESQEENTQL
The assay can be described thus: Fluorescence-based biochemical high throughput dose response assay to identify inhibitors of phospholipase C isozymes (PLC-B3).

Assay [8] deals with T3, Heat shock factor protein 1 (Mus musculus, UniProt P38532).
T3 sequence (P38532 whole entry): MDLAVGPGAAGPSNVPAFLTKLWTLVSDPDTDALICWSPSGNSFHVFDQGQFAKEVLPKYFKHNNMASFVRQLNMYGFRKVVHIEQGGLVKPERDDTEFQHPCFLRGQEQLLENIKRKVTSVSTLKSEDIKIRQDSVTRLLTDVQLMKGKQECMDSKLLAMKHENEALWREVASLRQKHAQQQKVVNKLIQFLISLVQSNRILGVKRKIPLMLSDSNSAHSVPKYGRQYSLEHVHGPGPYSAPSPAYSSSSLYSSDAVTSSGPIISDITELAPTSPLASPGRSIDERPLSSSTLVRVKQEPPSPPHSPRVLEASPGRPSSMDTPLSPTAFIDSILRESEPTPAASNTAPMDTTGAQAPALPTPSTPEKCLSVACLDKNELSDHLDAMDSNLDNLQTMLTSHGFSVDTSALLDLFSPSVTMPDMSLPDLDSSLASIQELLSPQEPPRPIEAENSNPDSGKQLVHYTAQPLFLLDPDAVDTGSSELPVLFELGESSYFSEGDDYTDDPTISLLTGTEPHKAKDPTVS
The assay can be described thus: enhancement of HSF1-driven luciferase signal – cell-based, NIH3T3, luminescence, dose retest, confirmation (AID 435004).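 Note: stress induced by proteasome inhibitor MG132 added 30 min after compound; luciferase reporter driven by HSF1 response element in NIH3T3 cells; actives raise luminescence as potentiators of the MG132 stress response.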 It counts as functional.

For assay [9], the target named is T4, 1-phosphatidylinositol 4,5-bisphosphate phosphodiesterase gamma-1 (Homo sapiens, UniProt P19174).
T4 sequence (P19174 whole entry): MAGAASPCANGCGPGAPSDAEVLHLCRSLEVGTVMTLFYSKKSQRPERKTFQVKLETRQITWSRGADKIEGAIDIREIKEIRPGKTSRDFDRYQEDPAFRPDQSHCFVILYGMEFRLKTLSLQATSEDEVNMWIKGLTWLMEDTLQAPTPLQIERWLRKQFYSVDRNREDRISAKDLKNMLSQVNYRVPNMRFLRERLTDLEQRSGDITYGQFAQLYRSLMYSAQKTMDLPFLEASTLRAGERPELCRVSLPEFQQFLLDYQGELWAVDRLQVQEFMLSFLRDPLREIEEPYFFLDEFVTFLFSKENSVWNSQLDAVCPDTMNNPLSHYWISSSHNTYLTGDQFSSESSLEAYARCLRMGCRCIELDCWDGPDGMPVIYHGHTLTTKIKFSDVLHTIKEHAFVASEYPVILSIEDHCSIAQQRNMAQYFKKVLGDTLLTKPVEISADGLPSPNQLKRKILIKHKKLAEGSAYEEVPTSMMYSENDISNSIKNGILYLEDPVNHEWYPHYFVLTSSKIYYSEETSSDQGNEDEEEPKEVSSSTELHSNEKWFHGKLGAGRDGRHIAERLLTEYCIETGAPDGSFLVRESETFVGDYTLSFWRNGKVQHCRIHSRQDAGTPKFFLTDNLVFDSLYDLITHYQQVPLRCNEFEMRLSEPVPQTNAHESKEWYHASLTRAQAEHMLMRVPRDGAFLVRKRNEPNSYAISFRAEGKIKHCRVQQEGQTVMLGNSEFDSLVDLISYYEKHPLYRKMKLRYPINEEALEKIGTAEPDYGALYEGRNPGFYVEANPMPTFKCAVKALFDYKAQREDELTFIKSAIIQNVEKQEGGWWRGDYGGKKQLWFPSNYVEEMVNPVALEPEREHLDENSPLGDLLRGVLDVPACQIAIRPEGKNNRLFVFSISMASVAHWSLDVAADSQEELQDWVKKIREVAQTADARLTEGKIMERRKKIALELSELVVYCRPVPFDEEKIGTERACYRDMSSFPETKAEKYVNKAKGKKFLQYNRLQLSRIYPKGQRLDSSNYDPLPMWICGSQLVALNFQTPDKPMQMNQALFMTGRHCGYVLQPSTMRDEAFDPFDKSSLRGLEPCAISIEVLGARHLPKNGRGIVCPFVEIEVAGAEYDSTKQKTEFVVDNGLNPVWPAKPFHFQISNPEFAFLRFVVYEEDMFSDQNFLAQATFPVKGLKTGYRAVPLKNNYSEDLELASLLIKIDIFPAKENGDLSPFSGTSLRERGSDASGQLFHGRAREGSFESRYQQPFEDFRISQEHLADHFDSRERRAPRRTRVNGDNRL
The assay can be described thus: Counterscreen for inhibitors of phospholipase C isozymes (PLC-B3): Fluorescence-based biochemical high throughput dose response assay to identify inhibitors of phospholipase C isozymes (PLC-gamma1). (Counterscreens check selectivity or assay interference.)

A short description of assay [10]: viability of uninfected HEp-2 cells – cell-based, HTS, cytotoxicity control for RSV inhibitor project, dose response (AID 2410). The conditions noted are these: human respiratory syncytial virus. It counts as functional.
For assay [11], the target named is T5, High affinity choline transporter 1 (Homo sapiens, UniProt Q9GZV3).
T5 sequence (Q9GZV3 whole entry): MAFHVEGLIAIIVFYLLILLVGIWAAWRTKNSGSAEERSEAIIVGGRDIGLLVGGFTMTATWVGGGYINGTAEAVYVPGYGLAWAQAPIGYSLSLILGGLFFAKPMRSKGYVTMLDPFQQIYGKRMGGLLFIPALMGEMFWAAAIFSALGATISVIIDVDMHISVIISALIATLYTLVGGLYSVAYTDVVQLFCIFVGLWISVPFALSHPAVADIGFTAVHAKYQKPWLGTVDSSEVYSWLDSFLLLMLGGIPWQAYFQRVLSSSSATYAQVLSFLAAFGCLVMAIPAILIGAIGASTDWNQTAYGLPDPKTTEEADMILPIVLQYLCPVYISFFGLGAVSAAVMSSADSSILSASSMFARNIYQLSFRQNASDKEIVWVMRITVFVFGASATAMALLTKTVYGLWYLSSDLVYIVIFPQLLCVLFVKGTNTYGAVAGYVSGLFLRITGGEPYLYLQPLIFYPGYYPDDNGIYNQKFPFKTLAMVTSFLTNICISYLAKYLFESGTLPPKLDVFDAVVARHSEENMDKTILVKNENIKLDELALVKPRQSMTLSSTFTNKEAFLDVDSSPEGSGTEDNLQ
Put plainly: human choline transporter blockers, potency – cell-based, 5-point CRC, membrane potential dye, dose response (AID 504840). The format is functional.

The subject of assay [12] is Vero. The assay can be described thus: cells. The format is functional. Particulars: Chlorocebus sabaeus.
A short description of assay [13]: cells. It counts as functional, cell-based.
The nature of assay [14]: cells. The format is functional, cell-based. The source holds these as a separate data set.

Consider `COc1cccc(C(NC(C)=O)c2nc(-c3ccc4ccccc4c3)cs2)c1` (centres undefined), for which the results for the IC50 in assay [1] and in assay [2] were 18.5 µM (inactive) and > 69.5 µM (inactive), respectively.
For `C[C@@H]1CN([C@@H](C)CO)C(=O)Cc2cc(NS(=O)(=O)c3ccccc3)ccc2O[C@@H]1CN(C)Cc1ccc(Cl)c(Cl)c1`, the AC50 in assay [3] was 43.7 µM (active).
With `Cc1cc(=O)oc2cc(OCC(=O)N3CCOCC3)c(Cl)cc12`, in assay [4], the EC50 is > 69.6 µM (inactive).
Take `O=C(/C=C/c1ccccc1)c1c[nH]c2ccccc12`: the EC50 in [5] is > 67.4 µM (inactive). Besides, the IC50 in [6] is > 67.4 µM (inactive).
As to `O=[N+]([O-])c1ccc(Sc2ncccn2)c([N+](=O)[O-])c1`, the IC50 in assay [7] and in assay [9] was > 123 µM (inactive) each time. Further, the EC50 in assay [8] was 6.83 µM (active).
On to `COc1ccc(OC)c(/C=N/NC(=O)CN2CCSCC2)c1`, for which the EC50 in assay [4] was 10.5 µM (inactive).
For `CN1C(=O)/C(=N\c2ccc(O)cc2)c2c3ccccc3c(O)c3cccc1c23`, the figures for the CC50 in assay [10] and in assay [12] were 16.8 µM (active) and > 25 µM (active), respectively. Besides, the figures for the IC50 in assay [1], in [11] and in assay [2] were 28.9 µM (inactive), 12.3 µM (active) and > 69.5 µM (inactive), respectively.
As to `Cc1nn(C(=O)CCC(=O)NCCc2ccccc2)c2ccccc12`, the IC50 in assay [13] was > 29.9 µM (inactive). In addition, in assay [14], the EC50 is > 29.9 µM (inactive).
`CC(C)NC(=O)c1nc2ccccc2s1`: the EC50 in [5] was > 67.5 µM (inactive). Besides, in [6], the IC50 is > 67.5 µM (inactive).
Regarding `C[C@H](CO)N1C[C@H](C)[C@@H](CN(C)Cc2ccncc2)Oc2ccc(NC(=O)CCC(F)(F)F)cc2C1=O`, in [3], the AC50 is 23.4 µM (active).
`O=C(Cc1cccs1)N1CCC(c2nc(O)c3nnn(Cc4ccccc4)c3n2)CC1`: the IC50 in assay [7] and in assay [9] was > 122 µM (inactive) throughout.
On to `O=C1NC(=O)C(c2ccc(Cl)cc2)N1` (centres undefined), for which the IC50 in assay [1] and in assay [2] was > 69.4 µM (inactive) in each case.

The values above are taken from ChEMBL document CHEMBL1201862, “PubChem BioAssay data set” (2004).
